Molecular target: T1, human mGluR5 (Homo sapiens, UniProt P41594)
T1 construct: expressed in transfected cells; host or cells: HEK293 cells stably expressing rat GLAST (EAAT1), stably transfected with pcDNAzeo3.1 carrying synthetic human mGluR5 DNA; zeocin-selected single clones
Assay: In vitro cell-based FLIPR calcium assay for positive modulation of the activation of mGluR5 by glutamate (PAM EC50)
Conditions: HEK293/GLAST cells expressing recombinant human mGluR5; FLIPR calcium signal; glutamate added at its EC20; read-out: mGluR5 PAM EC50
Outline: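 HEK293/GLAST cells stably expressing mGluR5 were loaded with calcium-sensitive dye (25 °C, 45–60 min) in HBSS/20 mM HEPES. Test compounds were assayed in buffer containing glutamate at that day's EC20, with FLIPR fluorescence recorded. Controls contained 0.3% DMSO without compound.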

T1 sequence (P41594 21-1212): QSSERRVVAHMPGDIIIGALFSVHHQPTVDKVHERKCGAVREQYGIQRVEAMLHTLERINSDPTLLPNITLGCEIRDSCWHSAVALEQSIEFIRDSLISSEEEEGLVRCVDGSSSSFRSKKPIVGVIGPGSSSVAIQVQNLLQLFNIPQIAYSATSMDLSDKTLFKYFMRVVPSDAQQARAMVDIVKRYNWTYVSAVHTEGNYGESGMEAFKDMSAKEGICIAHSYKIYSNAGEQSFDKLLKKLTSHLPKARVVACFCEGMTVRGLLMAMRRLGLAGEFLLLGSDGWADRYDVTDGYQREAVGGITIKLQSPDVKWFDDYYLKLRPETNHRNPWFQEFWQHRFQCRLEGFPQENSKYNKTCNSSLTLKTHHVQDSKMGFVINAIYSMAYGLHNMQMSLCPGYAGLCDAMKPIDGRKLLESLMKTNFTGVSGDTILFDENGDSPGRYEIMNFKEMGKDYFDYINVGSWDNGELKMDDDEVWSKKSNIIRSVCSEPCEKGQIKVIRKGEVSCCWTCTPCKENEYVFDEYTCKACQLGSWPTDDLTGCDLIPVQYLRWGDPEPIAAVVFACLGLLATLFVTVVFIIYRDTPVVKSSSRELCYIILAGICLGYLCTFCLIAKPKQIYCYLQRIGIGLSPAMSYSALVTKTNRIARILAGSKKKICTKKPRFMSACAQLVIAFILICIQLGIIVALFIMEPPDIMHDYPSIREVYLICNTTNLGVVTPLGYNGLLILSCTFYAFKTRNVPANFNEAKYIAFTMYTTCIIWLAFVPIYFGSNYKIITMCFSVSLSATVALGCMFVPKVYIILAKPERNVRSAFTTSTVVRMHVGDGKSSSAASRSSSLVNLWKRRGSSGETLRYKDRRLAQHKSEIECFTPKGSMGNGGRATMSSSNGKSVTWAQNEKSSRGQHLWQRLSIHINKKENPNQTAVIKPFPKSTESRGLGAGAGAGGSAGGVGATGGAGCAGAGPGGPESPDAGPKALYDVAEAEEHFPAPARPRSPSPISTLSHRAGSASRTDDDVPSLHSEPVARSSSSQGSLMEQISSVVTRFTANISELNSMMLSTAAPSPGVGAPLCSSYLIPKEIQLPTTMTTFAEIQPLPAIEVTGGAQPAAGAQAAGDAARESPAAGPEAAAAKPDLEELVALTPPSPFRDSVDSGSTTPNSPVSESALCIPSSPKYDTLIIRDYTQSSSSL

| SMILES | EC50 [nM] |
| --- | --- |
| O=c1c2ccc(C#Cc3ccc(F)cc3)cc2ncn1C1CCCC1 [Example 1.10, 3-cyclopentyl-7-((4-fluorophenyl)ethynyl)quinazolin-4(3H)-one] | 30 to 100 |
| CC1CCc2nc3cc(C#Cc4ccccn4)cnc3c(=O)n2CC1 (single isomer, unassigned) [11.9a/11.9b faster moving enantiomer (fraction 1), 8-methyl-3-(pyridin-2-ylethynyl)-7,8,9,10-tetrahydropyrido[3′,2′: 4,5]pyrimido[1,2-a]azepin-12(6H)-one] | 30 to 100 |
| CC1CCc2nc3cc(C#Cc4ccccn4)ccc3c(=O)n21 (stereo not shown) [Example 3.14, 1-methyl-6-(pyridin-2-ylethynyl)-2,3-dihydropyrrolo[2,1-b]quinazolin-9(1H)-one] | 100 to 300 |
| CC1(C)CCn2c(nc3cc(/C=C/c4cccc(C#N)n4)ccc3c2=O)C1 [Example 20.9, (E)-6-(2-(7,7-dimethyl-11-oxo-7,8,9,11-tetrahydro-6H-pyrido[2,1-b]quinazolin-3-yl)vinyl)picolinonitrile] | 100 to 300 |
| CC(c1nc2cc(C#Cc3ccccn3)ccc2c(=O)n1C)N(C)C (stereo not shown) [Example 2.21, 2-(1-(dimethylamino)ethyl)-3-methyl-7-(pyridin-2-ylethynyl)quinazolin-4(3H)-one] | 100 to 300 |
| C/C=C1\CCCCCn2c1nc1cc(C(=O)Nc3ncc(C)s3)ccc1c2=O [Example 25.1, (E)-6-ethylidene-N-(5-methylthiazol-2-yl)-13-oxo-7,8,9,10,11,13-hexahydro-6H-azocino[2,1-b]quinazoline-3-carboxamide] | < 10 |
| O=c1c2c(nc3cc(C#Cc4ccccn4)ccn13)CCCCCC2 [Example 17.2, 3-(pyridin-2-ylethynyl)-8,9,10,11-tetrahydro-6H-cycloocta[d]pyrido[1,2-a]pyrimidin-12(7H)-one] | < 10 |
| CC(c1nc2cc(C#Cc3ccccn3)ccc2c(=O)n1C)N(C)C1CCC1 (stereo not shown) [Example 2.23, 2-(1-(cyclobutyl(methyl)amino)ethyl)-3-methyl-7-(pyridin-2-ylethynyl)quinazolin-4(3H)-one] | 300 to 1000 |
| O=c1c2c(nc3cc(C#Cc4ccccn4)ccn13)CCCCC2 [Example 16.3, 3-(pyridin-2-ylethynyl)-7,8,9,10-tetrahydrocyclohepta[d]pyrido[1,2-a]pyrimidin-11(6H)-one] | < 10 |
| CC1(C)CCn2c(nc3nc(C#Cc4ccccn4)ccc3c2=O)C1 [Example 12.2, 9,9-dimethyl-2-(pyridin-2-ylethynyl)-7,8,9,10-tetrahydro-5H-dipyrido[1,2-a:2′,3′-d]pyrimidin-5-one] | 30 to 100 |
| O=c1c2c(nc3cc(C#Cc4ccccc4)ccn13)CCCCCC2 [Example 17.1, 3-(phenylethynyl)-8,9,10,11-tetrahydro-6H-cycloocta[d]pyrido[1,2-a]pyrimidin-12(7H)-one] | < 10 |
| O=c1c2ccc(C#Cc3ccccn3)cc2nc2n1CCC1CC21 (stereo not shown) [Example 4.43, 8-(pyridin-2-ylethynyl)-1,2,3,10b-tetrahydrocyclopropa[3,4]pyrido[2,1-b]quinazolin-5(1aH)-one] | 10 to 30 |

Next, values leading:

| EC50 [nM] | SMILES |
| --- | --- |
| 30 to 100 | O=c1c2ccc(C#Cc3cccc(F)c3)cc2nc2n1C(CO)CC2 (stereo not shown) [Example 3.5, 6-((3-fluorophenyl)ethynyl)-1-(hydroxymethyl)-2,3-dihydropyrrolo[2,1-b]quinazolin-9(1H)-one] |
| 30 to 100 | O=c1c2ccc(C#Cc3ccc(F)nc3)cc2nc2n1CCC1(CC2)OCCO1 [Example 7.15] |
| < 10 | O=c1c2ccc(C#Cc3cccc(F)c3)cc2nc2n1CC(Cc1ccccc1)C2 (stereo not shown) [Example 3.10] |
| 100 to 300 | COCCN1CCn2c(nc3cc(C#Cc4cccc(F)c4)ccc3c2=O)C1 [Example 5.9, 9-((3-fluorophenyl)ethynyl)-2-(2-methoxyethyl)-3,4-dihydro-1H-pyrazino[2,1-b]quinazolin-6(2H)-one] |
| 30 to 100 | CCCC1CCc2nc3cc(C#Cc4ccc(F)cc4)ccc3c(=O)n2CC1 (stereo not shown) [Example 6.13, 3-((4-fluorophenyl)ethynyl)-8-propyl-7,8,9,10-tetrahydroazepino[2,1-b]quinazolin-12(6H)-one] |
| 300 to 1000 | O=c1c(CO)cnc2cc(C#Cc3cccc(F)c3)ccn12 [Example 13.6, 8-((3-fluorophenyl)ethynyl)-3-(hydroxymethyl)-4H-pyrido[1,2-a]pyrimidin-4-one] |
| 100 to 300 | CN(C)CC1CCc2nc3cc(C#Cc4cccc(F)c4)ccc3c(=O)n21 (stereo not shown) [Example 3.4, 1-((dimethylamino)methyl)-6-((3-fluorophenyl)ethynyl)-2,3-dihydropyrrolo[2,1-b]quinazolin-9(1H)-one] |
| 100 to 300 | O=c1c2ccc(C#Cc3cccnc3F)cc2nc2n1CCC1(CC2)OCCO1 [Example 7.14] |
| 100 to 300 | Cn1c(CN2CCCC2)nc2cc(C#Cc3cccc(F)c3)ccc2c1=O [Example 2.6, 7-((3-fluorophenyl)ethynyl)-3-methyl-2-(pyrrolidin-1-ylmethyl)quinazolin-4(3H)-one] |
| 30 to 100 | Cc1ccnc(C#Cc2ccc3c(=O)n4c(nc3c2)CCC2(CC4)OCCO2)c1 [Example 7.48] |
| < 10 | O=c1c2ncc(C#Cc3cccc(F)c3)cc2nc2n1CCCCC2 [Example 11.7, 3-((3-fluorophenyl)ethynyl)-7,8,9,10-tetrahydropyrido[3′,2′:4,5]pyrimido[1,2-a]azepin-12(6H)-one] |
| < 10 | CC1(C)Cn2c(nc3cc(C#Cc4ccccn4)ccc3c2=O)C(F)(F)C1 [Example 4.44, 6,6-difluoro-8,8-dimethyl-3-(pyridin-2-ylethynyl)-8,9-dihydro-6H-pyrido[2,1-b]quinazolin-11(7H)-one] |
| 300 to 1000 | Cn1c(C2CCOC2)nc2cc(C#Cc3cccc(F)c3)ccc2c1=O (stereo not shown) [Example 2.2, 7-((3-fluorophenyl)ethynyl)-3-methyl-2-(tetrahydrofuran-3-yl)quinazolin-4(3H)-one] |
| 30 to 100 | CN1CCc2nc3cc(C#Cc4cccc(F)c4)ccc3c(=O)n2CC1 [Example 8.7, 8-((3-fluorophenyl)ethynyl)-3-methyl-2,3,4,5-tetrahydro-[1,4]diazepino[7,1-b]quinazolin-11(1H)-one] |
| 100 to 300 | O=c1c2ccc(C#Cc3ccccn3)cc2nc2n1CC1CCCN1CC2 (single isomer, unassigned) [Example 9.4a/9.4b slower moving enantiomer (fraction 2), 9-(pyridin-2-ylethynyl)-2,3,5,6,14,14a-hexahydropyrrolo[2′,1′:3,4][1,4]diazepino[7,1-b]quinazolin-12(1H)-one] |
| 10 to 30 | COCC1CCc2nc3cc(C#Cc4cccc(F)c4)ccc3c(=O)n2CC1 (stereo not shown) [Example 6.24, 3-((3-fluorophenyl)ethynyl)-8-(methoxymethyl)-7,8,9,10-tetrahydroazepino[2,1-b]quinazolin-12(6H)-one] |
| < 10 | CC1CCc2nc3cc(C#Cc4ccccn4)ccc3c(=O)n2CC1 (stereo not shown) [Example 6.9, 8-methyl-3-(pyridin-2-ylethynyl)-7,8,9,10-tetrahydroazepino[2,1-b]quinazolin-12(6H)-one] |
| 10 to 30 | COCC1CCc2nc3cc(C#Cc4ccccn4)ccc3c(=O)n2C1 (stereo not shown) [Example 4.34, 8-(methoxymethyl)-3-(pyridin-2-ylethynyl)-8,9-dihydro-6H-pyrido[2,1-b]quinazolin-11(7H)-one] |

Same assay, conditions: mGluR5 PAM EC50, HEK293/GLAST cells expressing recombinant human mGluR5; FLIPR calcium signal; glutamate added at its EC20

| SMILES | EC50 [nM] |
| --- | --- |
| CC1(C)CCc2nc3cc(C#Cc4ccccn4)ccc3c(=O)n2CC1 [Example 6.40, 8,8-dimethyl-3-(pyridin-2-ylethynyl)-7,8,9,10-tetrahydroazepino[2,1-b]quinazolin-12(6H)-one] | < 10 |
